Results: patent US20230159496A1, “COMPOUNDS AND METHODS FOR MODULATING SPLICING” (REMIX THERAPEUTICS INC., priority 2020, published 2023)
Where two headings read alike, the source gives them in different places.

Key:
Assay type in all cases: cell-based
HTT mRNA = assay: Splicing assay (RT-qPCR) monitoring HTT canonical junction (CJ) and alternative junction (AJ) mRNA isoforms; conditions: A673 or K562 cells, 24 h treatment, top dose 10 uM
Procedure, shortened: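 A673 or K562 cells treated 24 h at 37 °C with an 11-point 3-fold dilution (top 10 uM final, DMSO ≤0.25%). Lysates assayed by one-step RT-qPCR for HTT CJ and AJ isoforms, normalized to GAPDH, GUSB (K562) or PPIA (A673).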

HTT CJ mRNA = assay: Gene panel canonical junction qPCR assay, HTT; conditions: decrease in CJ mRNA levels, gene panel; read-out: HTT IC50
Procedure, shortened: (§1)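 A673 or K562 cells were treated for 24 h at 37 °C with an 11-point 3-fold dilution, top dose 10 uM, DMSO ≤0.25%. Canonical junction mRNA in lysates was quantified by one-step RT-qPCR and normalized to GAPDH, GUSB or PPIA.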

SMN2 CJ mRNA = assay: Gene panel canonical junction qPCR assay, SMN2; conditions: decrease in CJ mRNA levels, gene panel; read-out: SMN2 IC50
Procedure, shortened: as §1

Target C CJ mRNA = assay: Gene panel canonical junction qPCR assay, Target C; conditions: decrease in CJ mRNA levels, gene panel; read-out: Target C IC50
Procedure, shortened: as §1

[1] = decrease in CJ mRNA (50% response), read-out: HTT CJ AC50
[2] = increase in AJ mRNA (50% response), read-out: HTT AJ AC50

IC50 (HTT CJ mRNA)	IC50 (SMN2 CJ mRNA)	IC50 (Target C CJ mRNA)	SMILES	AC50 (HTT mRNA; [1])	AC50 (HTT mRNA; [2])
100 to 1000 nM	100 to 1000 nM	100 to 1000 nM	Cc1cn2nc(-c3ccc4c(=O)n(C5CCN(C)CC5)cnc4c3F)cc(C)c2n1 [Compound 290, 7-(2,8-dimethylimidazo[1,2-b]pyridazin-6-yl)-8-fluoro-3-(1-methylpiperidin-4-yl)quinazolin-4(3H)-one]	100 to 1000 nM	100 to 1000 nM
1000 to 10000 nM	100 to 1000 nM	1000 to 10000 nM	Cc1cn2cc(-c3ccc4c(=O)n(C5CCNCC5)cnc4c3F)cc(F)c2n1 [Compound 210, 8-fluoro-7-(8-fluoro-2-methylimidazo[1,2-a]pyridin-6-yl)-3-(piperidin-4-yl)quinazolin-4(3H)-one]	1000 to 10000 nM	1000 to 10000 nM
< 100 nM	< 100 nM	100 to 1000 nM	Cc1cn2cc(-c3ccc4c(=O)n(C5CCNCC5)ncc4c3)cc(F)c2n1 [Compound 248, 6-[8-fluoro-2-methylimidazo[1,2-a]pyridin-6-yl]-2-(piperidin-4-yl)phthalazin-1-one]	< 100 nM	100 to 1000 nM
100 to 1000 nM	< 100 nM	1000 to 10000 nM	Cc1cn2cc(-c3cc(F)c4c(=O)n(C5CCN(C)CC5)cnc4c3)cc(F)c2n1 [Compound 231, 5-fluoro-7-(8-fluoro-2-methylimidazo[1,2-a]pyridin-6-yl)-3-(1-methylpiperidin-4-yl)quinazolin-4(3H)-one]	100 to 1000 nM	100 to 1000 nM
100 to 1000 nM	< 100 nM	> 10000 nM	Cc1cn2cc(-c3ccc4c(=O)n(C5CCNCC5)ncc4c3)cc(Cl)c2n1 [Compound 256]	100 to 1000 nM	100 to 1000 nM
> 10000 nM	> 10000 nM	> 10000 nM	Cn1cc2ccc(-c3ccc4c(=O)n(C5CCNCC5)ncc4c3)cc2n1 [Compound 263]	> 10000 nM	> 10000 nM
> 10000 nM	1000 to 10000 nM	> 10000 nM	O=c1c2ccc(-c3cn[nH]c3)cc2ncn1C1CCNCC1 [Compound 284]	> 10000 nM	> 10000 nM
> 10000 nM	100 to 1000 nM	> 10000 nM	Cc1nc2c(F)cc(-c3ccc4c(c3)CCN(C3CCNCC3)C4=O)cc2s1 [Compound 226]	> 10000 nM	> 10000 nM
100 to 1000 nM	100 to 1000 nM	100 to 1000 nM	Cc1cn2nc(-c3ccc4c(=O)n(C5CCNCC5)ncc4c3)nc2c(C)n1 [Compound 259]	100 to 1000 nM	100 to 1000 nM
> 10000 nM	> 10000 nM	> 10000 nM	CN1CCC(n2cnc3cc(-c4cn[nH]c4)ccc3c2=O)CC1 [Compound 299]	> 10000 nM	> 10000 nM
1000 to 10000 nM	1000 to 10000 nM	1000 to 10000 nM	Cc1cn2cc(-c3ccc4c(=O)n(C5CCNCC5)ncc4c3)c(C)cc2n1 [Compound 254]	1000 to 10000 nM	1000 to 10000 nM
1000 to 10000 nM	< 100 nM	1000 to 10000 nM	Cc1cc(-c2ccc3c(c2)CCN(C2CCNCC2)C3=O)cc2cn(C)nc12 [Compound 219]	1000 to 10000 nM	1000 to 10000 nM
